Results on 4 molecules are retold here after ChEMBL document CHEMBL5252578, “seco-Pregnane Glycosides from Australian Caustic Vine (Cynanchum viminale subsp. australe)” (J Nat Prod, 2023).

The subject of experiment [1] is Sarcoptes scabiei. Nature of the experiment: Miticidal activity against Sarcoptes scabiei Larva assessed as effect on larval mortality at 100 uM measured upto 48 hrs by microscopic analysis. The class given is functional, organism-based.
Experiment [2] relates to Sarcoptes scabiei. Kind of experiment: Miticidal activity against Sarcoptes scabiei eggs assessed as effect on egg hatching at 100 uM measured upto 48 hrs by microscopic analysis. The class given is functional, organism-based.
In experiment [3] the test system is Sarcoptes scabiei. Nature of the experiment: Miticidal activity against Sarcoptes scabiei assessed as mortality rate at 100 uM measured upto 48 hrs by microscopic analysis. The class given is functional.
In experiment [4] the target is Cholinesterase (Equus caballus) (UniProt P81908). Nature of the experiment: Inhibition of equine BuChE at 100 uM using […] as substrate incubated for 29 mins by Ellman's method relative to control.
Experiment [5] has as its system MCF7. Kind of experiment: Cytotoxicity against human MCF7 cells assessed as cell growth inhibition measured after 6 days by SRB assay. The class given is functional, cell-based. Conditions: MCF7, 144 h. In general terms: The SRB assay estimates cell density from bound dye.
Experiment [6] concerns MM96L. Kind of experiment: Cytotoxicity against human MM96L cells assessed as cell growth inhibition measured after 6 days by SRB assay. The class given is functional, cell-based. Conditions: 144 h.
Experiment [7] deals with HeLa. Nature of the experiment: Cytotoxicity against human HeLa cells assessed as cell growth inhibition measured after 6 days by SRB assay. Conditions: 144 h. The class given is functional, cell-based.
In experiment [8] the test system is HT-29. Nature of the experiment: Cytotoxicity against human HT-29 cells assessed as cell growth inhibition measured after 6 days by SRB assay. The class given is functional, cell-based. Conditions: HT-29, 144 h.
The test system of experiment [9] is NFF. Nature of the experiment: Cytotoxicity against human NFF cells assessed as cell growth inhibition measured after 6 days by SRB assay. The class given is functional, cell-based. Conditions: 144 h.

Usually inhibition stands for the change of the read-out against control, counted positive when it falls. What is called IC50 is the point on the concentration scale where inhibition reaches its midpoint.

Molecules are shown by their SMILES. Activity calls are given as the source filed them. The calls are words filed in the database; no cut-off is given here.

Cholinesterase (Equus caballus), sequence (P81908 whole entry): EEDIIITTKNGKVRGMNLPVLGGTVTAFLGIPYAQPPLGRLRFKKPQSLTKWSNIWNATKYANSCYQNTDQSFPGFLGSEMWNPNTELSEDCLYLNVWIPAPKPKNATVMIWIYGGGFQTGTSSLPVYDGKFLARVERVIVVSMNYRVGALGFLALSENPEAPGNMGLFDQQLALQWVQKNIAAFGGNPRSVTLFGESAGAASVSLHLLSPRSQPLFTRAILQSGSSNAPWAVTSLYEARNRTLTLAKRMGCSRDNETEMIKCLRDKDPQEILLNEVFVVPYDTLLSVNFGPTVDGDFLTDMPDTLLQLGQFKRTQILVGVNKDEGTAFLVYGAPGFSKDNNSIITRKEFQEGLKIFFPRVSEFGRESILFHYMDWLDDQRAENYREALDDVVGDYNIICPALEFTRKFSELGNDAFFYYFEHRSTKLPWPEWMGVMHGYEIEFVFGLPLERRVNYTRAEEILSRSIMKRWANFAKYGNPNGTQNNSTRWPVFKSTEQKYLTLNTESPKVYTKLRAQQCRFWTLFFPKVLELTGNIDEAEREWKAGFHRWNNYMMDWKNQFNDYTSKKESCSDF

With `CO[C@H]1C[C@H](O[C@H]2[C@@H](OC)C[C@H](O[C@H]3CC[C@@]4(C)C(=CCC(=O)[C@@H]4C[C@@H](OC(C)=O)[C@@]4(C)C(=O)CC[C@H]4C(C)=O)C3)O[C@@H]2C)O[C@H](C)[C@H]1O`, the result in experiment [1] and in [2] was inactive. Also, the Activity in experiment [3] is on record as 30%. The same molecule yielded an inhibition in [4] of 13.5%.
Take `CO[C@H]1C[C@H](O[C@H]2CC[C@@]3(C)C(=CCC(=O)[C@@H]3C[C@@H](OC(C)=O)[C@@]3(C)C(=O)CC[C@H]3C(C)=O)C2)O[C@H](C)[C@H]1O[C@H]1C[C@@H](OC)[C@H](O)[C@@H](C)O1`: the result in [1], in experiment [2] and in experiment [3] was inactive. In [4], this molecule gave an inhibition of 2.64%.
Consider `CC(=O)O[C@H](C[C@H]1C(=O)CC=C2C[C@@H](O)CC[C@@]21C)[C@@]1(C)C(=O)CC[C@H]1C(C)=O`, for which, in [4], the inhibition is 7.72%.
Regarding `C[C@@]1([C@@H](C[C@H]2C(=O)CC=C3C[C@@H](O)CC[C@@]32C)OC(=O)c2ccccc2)C(=O)[C@@]2(C)CC[C@@H]1O2`, the IC50 in experiment [5], in [6], in [7], in experiment [8] and in experiment [9] was greater than 10 µM each time. The inhibition in experiment [4] turned out to be 14%.
